Laboratory results: patent US10588321B2, “Method for using mustard meal or an extract thereof” (University of Idaho, priority 2015, dated 2020)

Columns and labels:
liverwort = assay: Liverwort control by spraying; assay type: in vivo; conditions: for contribution to phytotoxicity, in words: liverwort; for liverwort control, in words: sprayed on liverwort
From the text: The sinalbin had been hydrolyzed to undetectable levels.

potato sprouting = conditions: in vivo; cited from earlier work
[1] = test system: weeds, vegetative cover, wheat, cotton; conditions: cited from earlier work

Row | SMILES | contribution to phytotoxicity, in words (liverwort) | liverwort control, in words (liverwort) | effect on potato sprouting, in words (potato sprouting) | further results
1 | N#CCc1ccc(O)cc1 [4-hydroxyphenyl acetonitrile] | primary phytotoxic compounds | did not control the liverwort as effectively as applying the extract |  | contribution to phytotoxicity, in words (liverwort; listed as nitrile): much more phytotoxic than SCN^−
2 | N#C[S-].[Na+] [sodium thiocyanate (NaSCN), sodium thiocyanate] |  |  | promote potato sprouting | 
3 | N.N#CS [ammonium thiocyanate (NH4SCN), ammonium thiocyanate] |  |  | promote potato sprouting | 
4 | N#C[S-].[K+] [potassium thiocyanate (KSCN), potassium thiocyanate] |  |  | promote potato sprouting | 
5 | N#CS [SCN^−, ionic thiocyanate] | minor contributor |  |  | rate causing inhibition of wheat germination ([1]; effect no longer observed at 69 days post application): 342 kilograms SCN^−/ha; rate necessary for complete plant kill for 4 months ([1]; in vivo): 1,366 kg SCN^−/ha; rate removing a large percentage of the weeds ([1]; in vivo): 137 kilograms SCN^−/ha; rate at which cotton defoliation was possible ([1]; solutions sprayed directly on vegetative growth): 8.6 kilograms SCN^−/ha
6 | OCc1ccc(O)cc1 [4-hydroxybenzyl alcohol] | primary phytotoxic compounds | did not control the liverwort as effectively as applying the extract |  | contribution to phytotoxicity, in words (liverwort; listed as 4-OH benzyl alcohol): more phytotoxic that SCN^−
